Key:
Type in all cases: cell-based
[1] = system: T-Rex 293 cell line SC3 cells lacking increased expression of androgen receptor protein; test: Cellular growth inhibition, T-Rex 293 SC3 cells without doxycycline; details: not exposed to doxycycline, 72 hours, CellTiter-Glo 2.0
Description: (§1) The following types of cells were prepared for this experiment: (i) a T-Rex 293 cell line having increased expression of androgen receptor protein due to exposure to doxycycline and (ii) a T-Rex 293 cell line lacking increased expression of androgen receptor protein. Ability of the test compounds to inhibit proliferation of the foregoing cell types was evaluated according to the procedures set forth below.
(§2) The doxycycline-inducible androgen receptor protein expressing cell line was established using the following protocol: T-Rex 293 cells were purchased from Invitrogen (Cat #R71007) and transfected using Lipofectamine 2000 with the wild-type androgen receptor protein sequence cloned into the pcDNA4/TO vector. Transfected cells were selected using 400 μg/mL Zeocin (Invitrogen Cat #R25001). Following selection, single clones were raised and maintained in Dulbecco's Modified Eagle Medium (DMEM) supplemented with 10% w/w Tetracycline-free fetal bovine serum (FBS) and 250 μg/mL Zeocin. Clones were analyzed for expression of androgen receptor protein in the presence and absence of 10 ng/mL doxycycline (Sigma Cat #D9891), and a single doxycycline-inducible clone (hereinafter “SC3”) was selected for use in downstream assays.
(§3) The SC3 cells were seeded on poly-D-lysine coated, black clear-bottom 384-well plates at 2500/well, in 25 μL Phenol Red Free Dulbecco's Modified Eagle Medium (DMEM) supplemented with 10% w/w charcoal-dextran treated fetal bovine serum (FBS) and 1% w/w pen-strep, with or without 10 ng/mL doxycycline. Pen-Strep is a commercially available mixture of penicillin G and streptomycin, which is used in mammalian cell culture media to prevent bacterial contamination. Phenol Red Free Dulbecco's Modified Eagle Medium (DMEM) supplemented with 10% w/w charcoal-dextran treated fetal bovine serum (FBS) and 1% w/w pen-strep, with or without 10 ng/mL doxycycline is herein referred to as Treatment Medium. Following seeding of cells in the plates, the plates were spun at 300×g for 30 seconds, then equilibrated to room temperature for 30 minutes, and then deposited in a humidified tissue culture incubator maintained at 37° C. with 5% CO2.
(§4) At 24 hours after seeding of the cells, dilutions of test compound were prepared in DMSO and dissolved in Treatment Medium, to achieve a final DMSO concentration of 0.5% w/w, thereby providing the Test Compound Solution. A 25 μL aliquot of the Test Compound Solution was added to cells in the well plates. An equal volume of a solution containing DMSO and Treatment Medium was used as a negative control. Following treatment of cells with Test Compound Solution or said equal volume of a solution containing DMSO and Treatment Medium, the plates were spun at 300×g for 30 seconds, and then left in an incubator for 72 hours.
(§5) At the end of the treatment duration, cell viability was quantified with CellTiter-Glo 2.0 reagent (Promega Cat #G9243). For this purpose, plates were equilibrated to room temperature for 30 minutes, and then 25 μL of CellTiter-Glo 2.0 reagent was added to cells in the plate wells. Plates were then agitated on a shaker for two minutes at 500 rpm and subsequently incubated at room temperature for 10 minutes. Following incubation, the plates were spun at 3000×g for 30 seconds, then sealed with an optical adhesive cover, and luminescence readings were measured with an EnVision Plate Reader.
(§6) Data was normalized using zero luminescence for baseline. A four-parameter non-linear regression curve fit was applied to dose-response data in GraphPad Prism data analysis software to determine the half-maximal growth inhibitory concentration (GI50) for each test compound.

[2] = system: T-Rex 293 cell line SC3 cells having increased expression of androgen receptor protein; test: Cellular growth inhibition, T-Rex 293 SC3 cells with doxycycline (increased androgen receptor expression); details: with 10 ng/mL doxycycline (increased androgen receptor), 72 hours, CellTiter-Glo 2.0
Description: as §1, §2, §3, §4, §5, §6

VCaP cells = test: Cellular growth inhibition assay for VCaP cells; details: Homo sapiens, 72 hours, CellTiter-Glo 2.0
Description: VCaP cells were purchased from American Type Cell Culture (ATCC Cat #CRL2876) and then seeded on poly-D-lysine coated, black clear-bottom 384-well plates at 5000/well in 25 μL Dulbecco's Modified Eagle Medium (DMEM) supplemented with 10% w/w Fetal bovine serum (FBS) and 1% w/w Pen-Strep. Pen-Strep is a commercially available mixture of penicillin G and streptomycin, which is used in mammalian cell culture media to prevent bacterial contamination. Dulbecco's Modified Eagle Medium (DMEM) supplemented with 10% w/w fetal bovine serum (FBS) and 1% w/w Pen-Strep is herein referred to as Treatment Medium. Following seeding of cells in the plates, the plates were spun at 300×g for 30 seconds, then equilibrated to room temperature for 30 minutes, and then deposited in a humidified tissue culture incubator maintained at 37° C. with 5% CO2.
as §4
as §5, with “Reader. Data was normalized using zero luminescence for baseline.” for “Reader.”
A four-parameter non-linear regression curve fit was applied to dose-response data in GraphPad Prism data analysis software to determine the half-maximal growth inhibitory concentration (GI50) for each test compound.

SMILES: CC1(C)[C@H](NC(=O)c2cnc(N3CCC(OCCOCCOCCOCCOCCOCCOCCNS(=O)(=O)c4ccc(Nc5ncc(Br)c(Nc6cccc(F)c6C(N)=O)n5)cc4)CC3)nc2)C(C)(C)[C@H]1Oc1ccc(C#N)c(Cl)c1 [Compound I-16]
- GI50 [1]: > 3500 nM
- GI50 [2]: > 3500 nM

SMILES: CN(CCOCCOCCOCCOCCOCCOCCNS(=O)(=O)c1ccc(Nc2ncc(Br)c(Nc3cccc(F)c3C(N)=O)n2)cc1)c1ncc(C(=O)N[C@H]2C(C)(C)[C@H](Oc3ccc(C#N)c(Cl)c3)C2(C)C)cn1 [Compound I-21]
- GI50 [1]: > 3500 nM
- GI50 [2]: > 3500 nM

SMILES: CCc1cnn2c(NCc3ccc(OCCCOC4CCN(c5ncc(C(=O)N[C@H]6C(C)(C)[C@H](Oc7ccc(C#N)c(Cl)c7)C6(C)C)cn5)CC4)nc3)cc(N3CCCC[C@H]3CCO)nc12 [Compound I-26]
- GI50 [1]: > 3500 nM
- GI50 [2]: 1000 to 3500 nM

SMILES: CCc1cnn2c(NCc3ccc(OCCCCCOC4CCN(c5ncc(C(=O)N[C@H]6C(C)(C)[C@H](Oc7ccc(C#N)c(Cl)c7)C6(C)C)cn5)CC4)nc3)cc(N3CCCC[C@H]3CCO)nc12 [Compound I-28]
- GI50 [1]: > 3500 nM
- GI50 [2]: 100 to 1000 nM

SMILES: CCc1cnn2c(CCc3ccc(OCCCCCCOC4CCN(c5ncc(C(=O)N[C@H]6C(C)(C)[C@H](Oc7ccc(C#N)c(Cl)c7)C6(C)C)cn5)CC4)nc3)cc(N3CCCC[C@H]3CCO)nc12 [Compound I-29]
- GI50 [1]: > 3500 nM
- GI50 [2]: 100 to 1000 nM

SMILES: CCc1cnn2c(NCc3ccc(OCCCCCCCOC4CCN(c5ncc(C(=O)N[C@H]6C(C)(C)[C@H](Oc7ccc(C#N)c(Cl)c7)C6(C)C)cn5)CC4)nc3)cc(N3CCCC[C@H]3CCO)nc12 [Compound I-30]
- GI50 [1]: > 3500 nM
- GI50 [2]: > 3500 nM

SMILES: CCc1cnn2c(NCc3ccc(OCCCOCCOC4CCN(c5ncc(C(=O)N[C@H]6C(C)(C)[C@H](Oc7ccc(C#N)c(Cl)c7)C6(C)C)cn5)CC4)nc3)cc(N3CCCC[C@H]3CCO)nc12 [Compound I-32]
- GI50 (VCaP cells): < 100 nM
- GI50 [1]: 1000 to 3500 nM
- GI50 [2]: < 100 nM

SMILES: CCc1cnn2c(NCc3ccc(OCCOCCCOC4CCN(c5ncc(C(=O)N[C@H]6C(C)(C)[C@H](Oc7ccc(C#N)c(Cl)c7)C6(C)C)cn5)CC4)nc3)cc(N3CCCC[C@H]3CCO)nc12 [Compound I-33]
- GI50 (VCaP cells): 100 to 1000 nM
- GI50 [1]: 1000 to 3500 nM
- GI50 [2]: < 100 nM

SMILES: CCc1cnn2c(NCc3ccc(OCCCOCCCOC4CCN(c5ncc(C(=O)N[C@H]6C(C)(C)[C@H](Oc7ccc(C#N)c(Cl)c7)C6(C)C)cn5)CC4)nc3)cc(N3CCCC[C@H]3CCO)nc12 [Compound I-35]
- GI50 (VCaP cells): 100 to 1000 nM
- GI50 [1]: 100 to 1000 nM
- GI50 [2]: < 100 nM

SMILES: CCc1cnn2c(NCc3ccc(OCCOCCCCOC4CCN(c5ncc(C(=O)N[C@H]6C(C)(C)[C@H](Oc7ccc(C#N)c(Cl)c7)C6(C)C)cn5)CC4)nc3)cc(N3CCCC[C@H]3CCO)nc12 [Compound I-36]
- GI50 (VCaP cells): < 100 nM
- GI50 [1]: > 3500 nM
- GI50 [2]: < 100 nM

SMILES: CCc1cnn2c(NCc3ccc(OCCCCCOCCOC4CCN(c5ncc(C(=O)N[C@H]6C(C)(C)[C@H](Oc7ccc(C#N)c(Cl)c7)C6(C)C)cn5)CC4)nc3)cc(N3CCCC[C@H]3CCO)nc12 [Compound I-37]
- GI50 (VCaP cells): > 3500 nM
- GI50 [1]: > 3500 nM
- GI50 [2]: 100 to 1000 nM

SMILES: CCc1cnn2c(NCc3ccc(OCCCCOCCCOC4CCN(c5ncc(C(=O)N[C@H]6C(C)(C)[C@H](Oc7ccc(C#N)c(Cl)c7)C6(C)C)cn5)CC4)nc3)cc(N3CCCC[C@H]3CCO)nc12 [Compound I-38]
- GI50 (VCaP cells): 100 to 1000 nM
- GI50 [1]: > 3500 nM
- GI50 [2]: 100 to 1000 nM

SMILES: CCc1cnn2c(NCc3ccc(OCCCOCCCCOC4CCN(c5ncc(C(=O)N[C@H]6C(C)(C)[C@H](Oc7ccc(C#N)c(Cl)c7)C6(C)C)cn5)CC4)nc3)cc(N3CCCC[C@H]3CCO)nc12 [Compound I-39]
- GI50 (VCaP cells): > 3500 nM
- GI50 [1]: > 3500 nM
- GI50 [2]: < 100 nM

SMILES: CCc1cnn2c(NCc3ccc(OCCCC4CCN(CC5CCN(c6ncc(C(=O)N[C@H]7C(C)(C)[C@H](Oc8ccc(C#N)c(Cl)c8)C7(C)C)cn6)CC5)CC4)nc3)cc(N3CCCC[C@H]3CCO)nc12 [Compound I-53]
- GI50 [1]: 100 to 1000 nM
- GI50 [2]: < 100 nM

Reference: patent US20260159520A1, “HETEROBIFUNCTIONAL COMPOUNDS AND METHODS OF TREATING DISEASE” (Halda Therapeutics OpCo, Inc., priority 2022, published 2026)
